One assay addresses D-1 receptor. The experiment in a line: D-1 antagonist activity in adenylate cyclase assay (antagonism of dopamine-induced increase in cAMP). Conditions: 10 μM dopamine; goldfish retina or rat striatum homogenate. Type of assay: biochemical. The protocol: The functional activity of a compound was determined by assaying, in vitro, its ability to either stimulate the enzyme adenylate cyclase to produce more cAMP (agonist activity) or to antagonize a dopamine-induced increase in cAMP levels. The protocol for the adenylate cyclase assays was described by K. J. Watling and J. E. Dowling in J Neurochemistry, 1981, 36: 599 and by J. W. Kebabian, et al. in Proc Natl Acad Sci, USA, 1972, 69: 2145. In order to determine agonist activity, cell-free tissue homogenates are incubated in an ionic buffer solution containing ATP and the compound being evaluated. The tissue was obtained from either goldfish retina or rat striatum.
The Ki values were calculated as described by Y. C.

The target in assay [1] is T1, dopamine D-1 receptor (Rattus norvegicus, UniProt P18901). The experiment in a line: Rotation behavior: block of A-68930-induced rotation in rats with unilateral 6-hydroxydopamine lesion. It counts as in vivo. Also on record: Homogenized rat caudate was incubated; from tissue; host or cells: rat caudate homogenate. The conditions noted are these: subcutaneous, A-68930 1.0 μmol/kg s.c.
T1 sequence (P18901 whole entry): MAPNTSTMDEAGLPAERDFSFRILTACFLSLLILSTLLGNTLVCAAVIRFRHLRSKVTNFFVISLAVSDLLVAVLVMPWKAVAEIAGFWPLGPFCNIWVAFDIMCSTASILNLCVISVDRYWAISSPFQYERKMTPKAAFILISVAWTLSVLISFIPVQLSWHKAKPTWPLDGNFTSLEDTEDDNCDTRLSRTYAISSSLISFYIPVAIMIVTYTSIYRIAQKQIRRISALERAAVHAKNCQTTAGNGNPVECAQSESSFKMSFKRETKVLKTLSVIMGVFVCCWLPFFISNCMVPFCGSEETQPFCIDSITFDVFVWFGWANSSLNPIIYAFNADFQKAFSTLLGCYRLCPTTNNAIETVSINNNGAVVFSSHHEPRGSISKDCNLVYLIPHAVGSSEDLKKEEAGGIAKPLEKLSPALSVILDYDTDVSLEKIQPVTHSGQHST

Another assay addresses T2, dopamine D-2 receptor (Rattus norvegicus, UniProt P61169).
T2 construct: Homogenized rat caudate was the source of the D-2 receptors; from tissue; host or cells: rat caudate homogenate
The experiment in a line: D-2 receptor binding assay, competition with [^3 H]-spiperone in homogenized rat caudate. The conditions noted are these: rat caudate homogenate. Here is the method:
Homogenized rat caudate was the source of the D-2 receptors. […] A. Frey, T. E. Cote, C. […] The molar affinity of the compound for the receptor binding site was calculated by the same method used for the D-1 receptor assay, assuming a competitive interaction between the compound and the radiolabeled ligand.

In assay [2] the target is T1, dopamine D-1 receptor. In words: D-1 receptor binding assay, competition with [^125 I]SCH-23982 in homogenized rat caudate.
Excerpt: The compounds compete with the radiolabeled ligand for occupancy of the receptors and the molar potency of each compound was quantified.
Setting [3] is: dose 10.0 μmol/kg, saline 1118 (Example 18), 1011 (Example 27).

Structures can show the parent of a compound that is named as a salt. Where only a bound is given, the exact number is not on record here.

T2 sequence (P61169 whole entry): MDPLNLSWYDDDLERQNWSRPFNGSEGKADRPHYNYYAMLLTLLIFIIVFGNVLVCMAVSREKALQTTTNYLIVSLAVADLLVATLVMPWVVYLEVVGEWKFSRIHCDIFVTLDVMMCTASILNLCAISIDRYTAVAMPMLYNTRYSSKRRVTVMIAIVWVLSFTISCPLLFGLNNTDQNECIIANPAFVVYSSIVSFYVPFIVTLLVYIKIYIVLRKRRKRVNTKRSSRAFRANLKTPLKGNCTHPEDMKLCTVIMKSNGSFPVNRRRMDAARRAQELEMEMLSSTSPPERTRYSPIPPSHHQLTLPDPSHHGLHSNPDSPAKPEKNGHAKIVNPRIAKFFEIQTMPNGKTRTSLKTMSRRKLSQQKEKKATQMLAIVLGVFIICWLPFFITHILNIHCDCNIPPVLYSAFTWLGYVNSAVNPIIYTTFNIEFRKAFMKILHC

Usually IC50 stands for the concentration needed to halve the response being measured. High values mean weaker potency, low ones greater potency. By Ki is commonly meant a measure of affinity in units of concentration, obtained from inhibition or displacement. In the case of `CN1CCc2cc(Br)c(O)cc2C2(CCc3ccccc32)C1` (centres unmarked) [Example 18, 7-Bromo-8-hydroxy-3-methyl-1-(spiro-1'-indan)-2,3,4,5-tetrahydro-1H-3-benzazepine hydrochloride], on D-1 receptor, the IC50 was determined as 50 nM. Moreover, the Ki at D-1 receptor was 10 nM; at dopamine D-2 receptor, 5.9 µM; on dopamine D-1 receptor [2] it was 10 nM. The “Number of Rotations/2 h” value was 491 Rotations/2 h on dopamine D-1 receptor [1] (dose 3.2 μmol/kg, saline group 1118); 412 Rotations/2 h on dopamine D-1 receptor [1] (setting [3]); 154 Rotations/2 h at dopamine D-1 receptor [1] (dose 32.0 μmol/kg, saline group 1118).

In the case of `CN1CCc2cc(O)c(O)cc2C2(CCCc3ccccc32)C1` (centres unmarked) [Example 27, 7,8-Dihydroxy-3-methyl-1-(spiro-1'-1',2',3',4'-tetrahydronapthalene)-2,3,4,5-tetrahydro-1H-3-benzazepine hydrobromide], half-maximal inhibition at D-1 receptor (IC50) was put at 2290 nM. Also, the Ki at D-1 receptor was 400 nM; on dopamine D-2 receptor, over 100 µM; on dopamine D-1 receptor [2], 840 nM. The “Number of Rotations/2 h” value at dopamine D-1 receptor [1] (dose 3.0 μmol/kg, saline group 1011) was 913 Rotations/2 h; on dopamine D-1 receptor [1] (setting [3]), 652 Rotations/2 h; at dopamine D-1 receptor [1] (dose 30.0 μmol/kg, saline group 1011) it was 119 Rotations/2 h.

These data come from patent US5158948A (Abbott Laboratories, priority 1991, dated 1992).
